# Experimental data reported in patent US11993598B2, “Compounds for inhibiting EGFR kinase, preparation methods and uses thereof” (WIGEN BIOMEDICINE TECHNOLOGY (SHANGHAI) CO., LTD., priority 2019, dated 2024).
# How the values were obtained:
# [1] = target: Ba/F3_EGFR V769_D770insASV (Homo sapiens, UniProt P00533, DUP767-769, cells depend on it); test: Cell proliferation assay (MTT); type: cell-based; conditions: three days, read-out: Ba/F3_EGFR V769_D770insASV IC50
# Description: (§1) A431 cells, H1975 and Ba/F3 cells expressing various mutant EGFR were harvested from exponential phase cultures and seeded in 96-well plates at a cell density of 3000 per well for A431 and H1975, and 10000 per well for Ba/F3 cells. After overnight attachment, compounds were 3-fold serially diluted and applied to cells at 30 μM, 10 μM, 3 μM, 1 μM, 0.3 μM, […], 0.03 μM and 0.01 μM with triplicates, and incubated for three days. 20 μL of 5 mg/mL MTT was added afterwards followed by the further addition of 50 μL 10% SDS together with 5% isobutyl alcohol in 0.01 mol/L HCl. The plates were incubated overnight. Absorbance (A) at a wavelength of 570 nm was quantified. Percentage of inhibition was used for the calculation of IC50 based on the bliss method.
# [2] = test system: H1975 (EGFR L858R/T790M, NSCLC); test: Cell proliferation assay (MTT); type: cell-based; conditions: Homo sapiens, NCI-H1975, 72 h, three days
# Description: as §1
# H1975 = test: Cell line-derived xenograft (CDX) mouse model; type: in vivo, nude mice
# Description: Assay 3. In vivo studies in cell line-derived (CDX) and patient derived xenografts (PDX) mouse models
# Cells (H1975) or tissue pieces (LU0493 and LU0426) were implanted subcutaneously into the left armpit of nude mice. When the average tumor volume reached 100-150 mm^3, mice were randomized by tumor volume and treated with vehicle, compound 1 or poziotinib respectively. Tumor volume and body weight were measured twice per week. Mice were sacrificed on day 21 or day 28, and tumor volume and terminal body weight were recorded. The relative tumor volume, percent of treatment/control values and tumor growth inhibition were calculated and statistics was performed.
# Terminal body weight changes were calculated as percentage of body changes from day 1 to day 21.
# HER2 = HER2 (Homo sapiens, UniProt P04626); test: HER2 biochemical activity assay (HTRF)
# Chain of HER2 (P04626 23-1255): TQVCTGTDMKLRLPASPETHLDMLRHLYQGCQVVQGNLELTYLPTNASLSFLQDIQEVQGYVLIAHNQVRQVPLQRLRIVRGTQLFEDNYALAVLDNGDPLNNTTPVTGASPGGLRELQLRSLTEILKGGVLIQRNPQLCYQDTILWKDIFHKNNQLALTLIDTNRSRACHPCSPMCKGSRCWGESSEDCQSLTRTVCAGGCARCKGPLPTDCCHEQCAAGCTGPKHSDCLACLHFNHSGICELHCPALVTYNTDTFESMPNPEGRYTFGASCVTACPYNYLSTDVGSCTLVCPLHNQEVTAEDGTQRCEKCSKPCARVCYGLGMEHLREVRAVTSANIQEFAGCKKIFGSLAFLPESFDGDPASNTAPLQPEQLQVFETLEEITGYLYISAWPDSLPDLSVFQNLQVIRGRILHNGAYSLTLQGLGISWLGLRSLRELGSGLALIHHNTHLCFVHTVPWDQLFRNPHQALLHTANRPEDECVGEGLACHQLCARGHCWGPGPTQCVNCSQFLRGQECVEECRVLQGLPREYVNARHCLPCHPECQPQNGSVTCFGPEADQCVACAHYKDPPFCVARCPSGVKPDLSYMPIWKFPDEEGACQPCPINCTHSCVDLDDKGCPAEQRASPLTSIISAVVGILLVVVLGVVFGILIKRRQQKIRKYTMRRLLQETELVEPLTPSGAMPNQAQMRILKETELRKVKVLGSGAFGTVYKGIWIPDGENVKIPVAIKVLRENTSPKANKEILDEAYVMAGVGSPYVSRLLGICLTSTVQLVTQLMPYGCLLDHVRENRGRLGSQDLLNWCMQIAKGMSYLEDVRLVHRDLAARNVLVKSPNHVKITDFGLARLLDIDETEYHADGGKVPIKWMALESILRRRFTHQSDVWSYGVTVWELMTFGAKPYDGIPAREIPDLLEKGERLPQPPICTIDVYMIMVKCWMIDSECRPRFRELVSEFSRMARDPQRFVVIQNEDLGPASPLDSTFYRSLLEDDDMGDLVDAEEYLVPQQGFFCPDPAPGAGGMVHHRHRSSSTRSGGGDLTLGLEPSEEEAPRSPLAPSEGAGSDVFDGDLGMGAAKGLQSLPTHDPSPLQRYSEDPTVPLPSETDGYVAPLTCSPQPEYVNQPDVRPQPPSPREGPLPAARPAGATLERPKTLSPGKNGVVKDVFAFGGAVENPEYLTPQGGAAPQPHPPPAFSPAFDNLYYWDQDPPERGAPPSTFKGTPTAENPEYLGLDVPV
# Description: Assay 1: Wild-type EGFR, HER2 and HER4, and mutant EGFR biochemical activity assay
# 10 nL of Serially diluted compounds were transferred to assay plates using the labcyte Echo 550, and 5 uL of 2× enzymes in assay buffer were subsequently dispensed. The assay plate was covered with an adhesive plate seal, and briefly spinned for 30 s at 1000 g. 5 uL of 2× TK-substrate-biotin and ATP mixed in assay buffer were added.
# IC50 was calculated and analyzed using a 4 parametric logistic model.
# Chain of Ba/F3_EGFR V769_D770insASV (P00533 with tags, fused parts or gaps DUP767-769): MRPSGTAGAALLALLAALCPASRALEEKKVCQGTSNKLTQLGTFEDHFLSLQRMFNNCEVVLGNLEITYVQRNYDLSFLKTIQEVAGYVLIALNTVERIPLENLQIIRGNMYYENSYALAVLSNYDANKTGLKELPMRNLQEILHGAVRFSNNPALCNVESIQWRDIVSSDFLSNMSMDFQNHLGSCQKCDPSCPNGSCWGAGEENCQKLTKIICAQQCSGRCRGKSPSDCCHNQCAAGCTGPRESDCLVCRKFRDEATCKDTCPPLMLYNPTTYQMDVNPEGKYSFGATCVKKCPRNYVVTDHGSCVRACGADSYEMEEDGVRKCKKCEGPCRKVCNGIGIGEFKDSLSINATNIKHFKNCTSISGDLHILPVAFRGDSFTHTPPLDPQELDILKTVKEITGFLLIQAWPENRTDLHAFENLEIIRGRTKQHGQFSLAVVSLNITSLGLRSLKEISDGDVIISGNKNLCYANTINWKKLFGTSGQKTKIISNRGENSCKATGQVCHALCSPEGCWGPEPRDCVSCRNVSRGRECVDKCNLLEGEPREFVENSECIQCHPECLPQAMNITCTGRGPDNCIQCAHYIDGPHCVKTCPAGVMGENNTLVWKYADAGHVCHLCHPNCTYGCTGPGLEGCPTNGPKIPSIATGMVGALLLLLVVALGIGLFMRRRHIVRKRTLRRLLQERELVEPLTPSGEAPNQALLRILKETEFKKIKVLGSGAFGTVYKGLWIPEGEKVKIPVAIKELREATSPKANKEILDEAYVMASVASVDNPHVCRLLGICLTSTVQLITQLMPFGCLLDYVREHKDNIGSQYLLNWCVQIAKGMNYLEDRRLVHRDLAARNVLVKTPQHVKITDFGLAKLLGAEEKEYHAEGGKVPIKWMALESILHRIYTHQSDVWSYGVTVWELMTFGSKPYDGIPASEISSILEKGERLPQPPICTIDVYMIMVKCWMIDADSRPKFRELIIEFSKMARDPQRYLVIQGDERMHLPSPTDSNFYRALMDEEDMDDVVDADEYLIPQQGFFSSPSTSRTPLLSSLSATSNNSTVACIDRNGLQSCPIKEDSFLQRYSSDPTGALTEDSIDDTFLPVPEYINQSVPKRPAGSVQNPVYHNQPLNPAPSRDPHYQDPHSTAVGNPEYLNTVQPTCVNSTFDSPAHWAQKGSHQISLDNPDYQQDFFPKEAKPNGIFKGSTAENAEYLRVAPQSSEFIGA
compound,measurement,setting,value
"C=CC(=O)Nc1cc(Nc2nccc(-n3c(=O)n4c5c(cc(F)cc53)CCC4)n2)c(OC)cc1N(C)CCN(C)C [Compound 1, N-(2-((2-(dimethylamino)ethyl)(methyl)amino)-5-((4-(8-fluoro-2-oxo-5,6-dihydro-4H-imidazo[4,5,1-ij]quinolin-1(2H)-yl)pyrimidin-2-yl)amino)-4-methoxyphenyl)acrylamide]",GI50,[1],20.2 nM
same,IC50,[2],52.9 nM
same,TGI (%),"H1975; H1975, 15 mg/kg compound 1",98%
same,Terminal body weight changes (%),"H1975; H1975, 15 mg/kg compound 1, day 1 to day 21",3.9%
same,TGI (%),"H1975; H1975, 30 mg/kg compound 1",106%
same,Terminal body weight changes (%),"H1975; H1975, 30 mg/kg compound 1, day 1 to day 21",5.1%
same,TGI (%),"H1975; H1975, 60 mg/kg compound 1",108%
same,Terminal body weight changes (%),"H1975; H1975, 60 mg/kg compound 1, day 1 to day 21",−4.1%
same,IC50,HER2,35.1 nM
